# Experiments:
# [1] = biological target: Mitogen-activated protein kinase kinase kinase 10 (Homo sapiens) (UniProt Q02779); details: Compound concentration 1000.0 nM
# [2] = biological target: Serine/threonine-protein kinase B-raf (Homo sapiens) (UniProt P15056); details: Compound concentration 1000.0 nM
# [3] = tested on: Receptor-type tyrosine-protein kinase FLT3 (Homo sapiens), P36888 [K663Q]; details: Compound concentration 1000.0 nM
# [4] = biological target: Receptor-interacting serine/threonine-protein kinase 2 (Homo sapiens) (UniProt O43353); details: Compound concentration 1000.0 nM
# Sequence of Receptor-interacting serine/threonine-protein kinase 2 (Homo sapiens) (O43353 whole entry): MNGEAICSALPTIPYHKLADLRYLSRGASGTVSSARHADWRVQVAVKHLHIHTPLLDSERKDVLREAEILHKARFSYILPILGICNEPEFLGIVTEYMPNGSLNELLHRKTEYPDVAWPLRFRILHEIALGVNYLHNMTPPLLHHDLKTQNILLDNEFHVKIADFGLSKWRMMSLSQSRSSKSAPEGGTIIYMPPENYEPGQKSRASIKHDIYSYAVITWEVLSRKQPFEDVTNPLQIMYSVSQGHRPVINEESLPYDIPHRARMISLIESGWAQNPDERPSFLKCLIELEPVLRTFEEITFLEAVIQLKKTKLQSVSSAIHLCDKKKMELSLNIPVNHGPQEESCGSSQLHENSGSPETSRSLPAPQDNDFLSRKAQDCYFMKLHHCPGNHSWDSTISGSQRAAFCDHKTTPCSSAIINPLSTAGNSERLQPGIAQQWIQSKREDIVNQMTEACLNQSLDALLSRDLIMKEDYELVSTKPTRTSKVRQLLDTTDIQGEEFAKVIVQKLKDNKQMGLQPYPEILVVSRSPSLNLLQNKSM
# [5] = biological target: Wee1-like protein kinase 2 (Homo sapiens) (UniProt P0C1S8); details: Compound concentration 1000.0 nM
# Sequence of Wee1-like protein kinase 2 (Homo sapiens) (P0C1S8 whole entry, looked up): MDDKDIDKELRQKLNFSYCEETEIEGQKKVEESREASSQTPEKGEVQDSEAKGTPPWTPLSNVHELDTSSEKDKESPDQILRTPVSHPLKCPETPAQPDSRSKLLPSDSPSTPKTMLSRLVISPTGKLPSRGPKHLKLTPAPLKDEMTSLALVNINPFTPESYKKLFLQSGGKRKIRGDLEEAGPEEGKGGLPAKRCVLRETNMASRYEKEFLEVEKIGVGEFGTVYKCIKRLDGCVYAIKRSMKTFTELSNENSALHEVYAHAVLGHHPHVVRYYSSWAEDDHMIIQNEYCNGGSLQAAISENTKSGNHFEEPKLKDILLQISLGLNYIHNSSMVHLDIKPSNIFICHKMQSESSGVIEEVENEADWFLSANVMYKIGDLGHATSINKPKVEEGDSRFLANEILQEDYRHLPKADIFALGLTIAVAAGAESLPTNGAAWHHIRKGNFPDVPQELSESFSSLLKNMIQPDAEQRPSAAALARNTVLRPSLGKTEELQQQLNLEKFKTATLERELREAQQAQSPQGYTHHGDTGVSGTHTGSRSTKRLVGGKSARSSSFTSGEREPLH
# [6] = biological target: T1, Serine/threonine-protein kinase Nek2 (Homo sapiens) (UniProt P51955); details: Compound concentration 1000.0 nM
# T1 sequence (whole entry): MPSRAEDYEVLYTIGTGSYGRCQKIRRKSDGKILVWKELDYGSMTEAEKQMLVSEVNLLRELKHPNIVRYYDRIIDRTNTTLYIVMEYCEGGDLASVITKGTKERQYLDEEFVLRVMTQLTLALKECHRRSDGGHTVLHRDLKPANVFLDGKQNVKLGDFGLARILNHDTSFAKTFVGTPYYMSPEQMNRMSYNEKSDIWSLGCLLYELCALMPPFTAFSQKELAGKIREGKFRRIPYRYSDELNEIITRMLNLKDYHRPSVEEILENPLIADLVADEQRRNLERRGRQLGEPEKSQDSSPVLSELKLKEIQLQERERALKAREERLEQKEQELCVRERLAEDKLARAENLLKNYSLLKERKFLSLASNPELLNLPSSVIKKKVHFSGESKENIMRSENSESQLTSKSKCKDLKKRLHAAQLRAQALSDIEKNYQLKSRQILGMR
# [7] = biological target: T2, Serine/threonine-protein kinase ICK (Homo sapiens) (UniProt Q9UPZ9); details: Compound concentration 1000.0 nM
# T2 sequence (whole entry): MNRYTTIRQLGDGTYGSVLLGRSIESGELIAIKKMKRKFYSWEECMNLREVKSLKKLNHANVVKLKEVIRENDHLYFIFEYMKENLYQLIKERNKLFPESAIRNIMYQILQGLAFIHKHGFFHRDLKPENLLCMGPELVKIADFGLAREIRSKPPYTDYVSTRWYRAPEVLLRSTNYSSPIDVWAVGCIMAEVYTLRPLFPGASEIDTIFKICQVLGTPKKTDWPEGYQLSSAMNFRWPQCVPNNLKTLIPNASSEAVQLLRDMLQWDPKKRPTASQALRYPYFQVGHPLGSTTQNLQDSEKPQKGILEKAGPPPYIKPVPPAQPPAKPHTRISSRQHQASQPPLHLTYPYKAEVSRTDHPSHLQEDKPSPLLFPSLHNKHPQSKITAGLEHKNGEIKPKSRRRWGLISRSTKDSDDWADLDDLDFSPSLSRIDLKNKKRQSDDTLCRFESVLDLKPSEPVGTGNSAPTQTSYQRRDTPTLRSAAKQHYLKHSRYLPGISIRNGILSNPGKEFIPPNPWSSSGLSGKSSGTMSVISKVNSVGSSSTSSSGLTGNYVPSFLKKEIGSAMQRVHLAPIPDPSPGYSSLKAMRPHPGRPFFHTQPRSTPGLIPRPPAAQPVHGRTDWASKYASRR
# [8] = biological target: Mitogen-activated protein kinase kinase kinase 19 (Homo sapiens) (UniProt Q56UN5); details: Compound concentration 1000.0 nM
# Sequence of Mitogen-activated protein kinase kinase kinase 19 (Homo sapiens) (Q56UN5 whole entry): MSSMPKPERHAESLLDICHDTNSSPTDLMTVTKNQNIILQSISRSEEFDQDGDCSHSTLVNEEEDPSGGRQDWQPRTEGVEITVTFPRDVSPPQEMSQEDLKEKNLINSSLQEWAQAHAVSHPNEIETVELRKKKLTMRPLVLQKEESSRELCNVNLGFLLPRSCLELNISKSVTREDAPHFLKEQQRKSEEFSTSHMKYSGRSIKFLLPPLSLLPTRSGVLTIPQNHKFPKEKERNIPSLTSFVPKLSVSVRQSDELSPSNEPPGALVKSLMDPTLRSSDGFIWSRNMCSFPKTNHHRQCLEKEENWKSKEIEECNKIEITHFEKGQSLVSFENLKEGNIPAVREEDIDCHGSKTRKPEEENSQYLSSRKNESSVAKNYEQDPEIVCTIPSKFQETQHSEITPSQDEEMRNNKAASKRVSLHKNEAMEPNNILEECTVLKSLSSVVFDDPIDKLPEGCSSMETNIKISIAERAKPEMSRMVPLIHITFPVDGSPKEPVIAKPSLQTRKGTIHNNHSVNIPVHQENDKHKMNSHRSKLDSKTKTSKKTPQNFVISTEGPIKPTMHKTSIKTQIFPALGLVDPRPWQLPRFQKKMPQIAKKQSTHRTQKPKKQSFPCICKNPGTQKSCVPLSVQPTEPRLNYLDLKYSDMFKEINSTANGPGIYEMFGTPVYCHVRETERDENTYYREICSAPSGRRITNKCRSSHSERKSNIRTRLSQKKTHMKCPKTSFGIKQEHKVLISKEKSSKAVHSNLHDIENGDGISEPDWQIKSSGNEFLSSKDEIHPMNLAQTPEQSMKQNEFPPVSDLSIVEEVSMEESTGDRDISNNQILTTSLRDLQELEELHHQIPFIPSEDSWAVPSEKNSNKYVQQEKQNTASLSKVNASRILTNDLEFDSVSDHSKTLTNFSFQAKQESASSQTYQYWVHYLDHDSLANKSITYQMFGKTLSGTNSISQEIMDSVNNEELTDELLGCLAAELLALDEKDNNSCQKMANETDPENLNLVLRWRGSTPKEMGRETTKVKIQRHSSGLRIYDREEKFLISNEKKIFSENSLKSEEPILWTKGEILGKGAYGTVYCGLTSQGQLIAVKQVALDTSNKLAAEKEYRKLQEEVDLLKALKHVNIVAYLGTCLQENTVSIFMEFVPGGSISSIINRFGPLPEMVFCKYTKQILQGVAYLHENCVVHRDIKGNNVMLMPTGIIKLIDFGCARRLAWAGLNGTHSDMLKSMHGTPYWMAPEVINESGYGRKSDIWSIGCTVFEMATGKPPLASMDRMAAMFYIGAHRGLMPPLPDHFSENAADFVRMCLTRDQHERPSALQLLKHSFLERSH
# [9] = biological target: Sigma intracellular receptor 2 (Homo sapiens, UniProt Q5BJF2); details: Compound concentration 10.0 uM
# Sequence of Sigma intracellular receptor 2 (Q5BJF2 whole entry): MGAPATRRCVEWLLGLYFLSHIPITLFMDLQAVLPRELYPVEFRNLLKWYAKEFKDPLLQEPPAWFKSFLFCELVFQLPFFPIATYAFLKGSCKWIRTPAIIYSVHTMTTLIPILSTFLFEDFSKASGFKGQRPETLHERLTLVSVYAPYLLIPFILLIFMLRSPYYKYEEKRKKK
# [10] = tested on: Proto-oncogene tyrosine-protein kinase receptor Ret (Homo sapiens), P07949 [M918T]; details: Compound concentration 1000.0 nM
# [11] = biological target: Tyrosine-protein kinase FRK (Homo sapiens) (UniProt P42685); details: Compound concentration 1000.0 nM
# [12] = biological target: T3, Serine/threonine-protein kinase 17A (Homo sapiens) (UniProt Q9UEE5); details: Compound concentration 1000.0 nM
# T3 sequence (whole entry): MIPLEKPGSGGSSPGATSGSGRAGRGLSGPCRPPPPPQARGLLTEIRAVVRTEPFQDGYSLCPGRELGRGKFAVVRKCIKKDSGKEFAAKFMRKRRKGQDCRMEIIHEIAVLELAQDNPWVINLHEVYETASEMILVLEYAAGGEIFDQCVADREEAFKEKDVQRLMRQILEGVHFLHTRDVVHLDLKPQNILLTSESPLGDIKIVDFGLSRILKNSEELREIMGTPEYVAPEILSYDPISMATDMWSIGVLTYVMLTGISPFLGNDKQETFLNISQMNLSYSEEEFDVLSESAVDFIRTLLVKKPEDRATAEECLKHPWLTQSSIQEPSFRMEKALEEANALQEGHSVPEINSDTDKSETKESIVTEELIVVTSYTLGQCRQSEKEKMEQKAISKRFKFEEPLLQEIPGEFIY
# [13] = biological target: T4, TGF-beta receptor type-1 (Homo sapiens) (UniProt P36897); details: Compound concentration 1000.0 nM
# T4 sequence (whole entry): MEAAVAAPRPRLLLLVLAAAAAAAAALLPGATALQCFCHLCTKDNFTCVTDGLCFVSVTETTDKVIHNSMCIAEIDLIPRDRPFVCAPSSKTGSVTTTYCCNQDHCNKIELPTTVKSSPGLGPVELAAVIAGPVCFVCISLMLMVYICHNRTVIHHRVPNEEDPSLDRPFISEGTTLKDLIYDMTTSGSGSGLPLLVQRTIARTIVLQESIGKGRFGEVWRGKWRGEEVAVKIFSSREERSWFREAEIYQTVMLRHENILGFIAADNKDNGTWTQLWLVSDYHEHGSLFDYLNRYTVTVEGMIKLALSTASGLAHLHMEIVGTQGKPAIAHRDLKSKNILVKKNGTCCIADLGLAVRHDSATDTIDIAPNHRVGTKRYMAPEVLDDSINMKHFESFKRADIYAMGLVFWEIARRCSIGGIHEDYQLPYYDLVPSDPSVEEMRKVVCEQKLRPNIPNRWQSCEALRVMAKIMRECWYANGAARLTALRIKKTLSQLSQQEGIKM
# [14] = biological target: Insulin receptor-related protein (Homo sapiens) (UniProt P14616); details: Compound concentration 1000.0 nM
# [15] = biological target: Mu-type opioid receptor (Homo sapiens) (UniProt P35372); details: Compound concentration 10.0 uM
# Sequence of Mu-type opioid receptor (Homo sapiens) (P35372 whole entry): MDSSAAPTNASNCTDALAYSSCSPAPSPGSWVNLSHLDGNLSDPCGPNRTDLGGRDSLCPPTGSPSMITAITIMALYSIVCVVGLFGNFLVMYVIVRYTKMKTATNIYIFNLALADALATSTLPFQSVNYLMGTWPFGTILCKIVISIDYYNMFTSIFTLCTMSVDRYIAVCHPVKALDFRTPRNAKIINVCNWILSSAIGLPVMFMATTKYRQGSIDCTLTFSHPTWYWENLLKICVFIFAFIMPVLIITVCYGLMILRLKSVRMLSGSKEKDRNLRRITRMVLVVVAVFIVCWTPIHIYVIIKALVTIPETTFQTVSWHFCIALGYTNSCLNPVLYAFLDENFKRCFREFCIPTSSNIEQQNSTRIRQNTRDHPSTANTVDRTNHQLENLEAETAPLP
# [16] = tested on: Tyrosine-protein kinase ABL1 (Homo sapiens), P00519 [F317L]; details: Compound concentration 1000.0 nM
# Sequence of Tyrosine-protein kinase ABL1 (Homo sapiens), P00519 [F317L] (P00519 whole entry F317L): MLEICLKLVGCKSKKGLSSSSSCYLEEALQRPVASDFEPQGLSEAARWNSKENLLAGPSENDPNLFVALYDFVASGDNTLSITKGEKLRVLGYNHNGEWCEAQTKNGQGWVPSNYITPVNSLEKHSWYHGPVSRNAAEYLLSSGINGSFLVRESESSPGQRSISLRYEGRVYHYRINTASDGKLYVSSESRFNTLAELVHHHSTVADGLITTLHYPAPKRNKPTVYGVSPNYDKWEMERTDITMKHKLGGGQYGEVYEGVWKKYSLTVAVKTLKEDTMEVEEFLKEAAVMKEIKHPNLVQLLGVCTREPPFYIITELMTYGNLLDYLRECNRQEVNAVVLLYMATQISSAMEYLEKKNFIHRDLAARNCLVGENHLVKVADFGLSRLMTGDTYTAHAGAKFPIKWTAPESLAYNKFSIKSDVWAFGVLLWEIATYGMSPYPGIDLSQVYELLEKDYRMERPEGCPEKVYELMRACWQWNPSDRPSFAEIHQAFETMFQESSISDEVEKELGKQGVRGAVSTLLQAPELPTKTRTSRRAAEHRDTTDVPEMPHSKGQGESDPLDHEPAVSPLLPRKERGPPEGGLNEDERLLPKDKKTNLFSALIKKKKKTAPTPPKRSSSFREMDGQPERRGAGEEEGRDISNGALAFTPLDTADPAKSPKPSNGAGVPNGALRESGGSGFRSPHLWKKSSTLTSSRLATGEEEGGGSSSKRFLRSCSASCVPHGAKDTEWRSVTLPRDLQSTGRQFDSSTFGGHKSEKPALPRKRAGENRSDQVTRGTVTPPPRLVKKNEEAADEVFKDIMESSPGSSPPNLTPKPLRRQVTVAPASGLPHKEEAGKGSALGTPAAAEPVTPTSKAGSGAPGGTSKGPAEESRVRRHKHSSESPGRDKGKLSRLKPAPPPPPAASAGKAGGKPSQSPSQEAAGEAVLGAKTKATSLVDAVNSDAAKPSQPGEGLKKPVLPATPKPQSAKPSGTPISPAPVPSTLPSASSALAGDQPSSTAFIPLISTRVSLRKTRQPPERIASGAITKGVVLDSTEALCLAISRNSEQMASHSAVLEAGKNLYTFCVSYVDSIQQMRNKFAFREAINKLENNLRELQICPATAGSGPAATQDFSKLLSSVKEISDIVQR
# [17] = biological target: Tyrosine-protein kinase ABL1 (Homo sapiens) (UniProt P00519); details: Compound concentration 1000.0 nM
# Sequence of Tyrosine-protein kinase ABL1 (Homo sapiens) (P00519 whole entry): as the sequence (P00519 whole entry F317L) above, with L317F counted along it
# [18] = biological target: Cyclin-dependent kinase 2 (Homo sapiens) (UniProt P24941); details: Compound concentration 1000.0 nM
# Sequence of Serine/threonine-protein kinase B-raf (Homo sapiens) (P15056 whole entry): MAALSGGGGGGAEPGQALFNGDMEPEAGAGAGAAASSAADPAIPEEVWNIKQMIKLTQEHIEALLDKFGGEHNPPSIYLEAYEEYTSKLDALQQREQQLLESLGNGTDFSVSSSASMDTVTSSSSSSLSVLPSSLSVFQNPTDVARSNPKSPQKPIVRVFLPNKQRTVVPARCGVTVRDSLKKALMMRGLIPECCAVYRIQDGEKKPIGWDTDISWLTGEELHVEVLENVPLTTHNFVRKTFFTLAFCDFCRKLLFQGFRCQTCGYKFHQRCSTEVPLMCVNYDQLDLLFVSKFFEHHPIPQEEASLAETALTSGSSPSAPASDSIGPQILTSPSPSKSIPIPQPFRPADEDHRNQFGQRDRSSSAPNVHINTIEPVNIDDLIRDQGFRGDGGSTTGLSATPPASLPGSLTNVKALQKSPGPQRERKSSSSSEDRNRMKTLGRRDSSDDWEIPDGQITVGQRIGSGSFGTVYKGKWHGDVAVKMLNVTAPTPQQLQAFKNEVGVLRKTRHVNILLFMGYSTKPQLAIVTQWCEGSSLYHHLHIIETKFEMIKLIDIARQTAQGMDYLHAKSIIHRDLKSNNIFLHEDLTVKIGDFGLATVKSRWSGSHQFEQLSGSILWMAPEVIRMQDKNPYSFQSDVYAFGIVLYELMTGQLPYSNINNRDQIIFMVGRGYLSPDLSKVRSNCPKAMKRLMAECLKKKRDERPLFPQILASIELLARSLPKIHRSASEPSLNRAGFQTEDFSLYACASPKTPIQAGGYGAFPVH
SMILES,residual activity [1] [%],residual activity [2] [%],residual activity [3] [%],residual activity [4] [%],residual activity [5] [%],residual activity [6] [%],residual activity [7] [%],residual activity [8] [%],inhibition [9] [%],residual activity [10] [%],residual activity [11] [%],residual activity [12] [%],residual activity [13] [%],residual activity [14] [%],inhibition [15] [%],residual activity [16] [%],residual activity [17] [%],residual activity [18] [%]
Cc1nc(C2CCN(C(=O)c3ccc(OC(F)(F)F)cc3N)CC2)c2ncc(N3CCN(C)CC3)cc2n1 [BAY-693],100,100,100,94,100,100,84,79,51.4,86,95,100,80,100,-1.66,97,92,87
CN1CCN(c2cnc3c(C4CCN(C(=O)c5ccc(OC(F)(F)F)cc5N)CC4)ncnc3c2)CC1 [BAY-885],100,100,100,100,100,100,100,83,30.9,100,100,92,90,100,13.2,100,86,100
